PubChem BioAssay (NCI)
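At the GI50, growth is halved. TGI: total growth inhibition.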

Assays:
Assay in all cases: DTP human tumour cell line panel, 384-well format
NCI-H460 NSCLC = tested on: NCI-H460 NSCLC
OVCAR-3 ovarian = tested on: OVCAR-3 ovarian
SNB-19 CNS = tested on: SNB-19 CNS
NCI/ADR-RES ovarian = tested on: NCI/ADR-RES ovarian
HT29 colon = tested on: HT29 colon
HOP-62 NSCLC = tested on: HOP-62 NSCLC
CAKI-1 renal = tested on: CAKI-1 renal
HS 578T breast = tested on: HS 578T breast
NCI-H522 lung = tested on: NCI-H522 lung
UACC-257 melanoma = tested on: UACC-257 melanoma
SNB-75 CNS = tested on: SNB-75 CNS
NCI-H226 lung = tested on: NCI-H226 lung
SF-295 CNS = tested on: SF-295 CNS
MDA-MB-468 breast = tested on: MDA-MB-468 breast
T-47D breast = tested on: T-47D breast
UO-31 renal = tested on: UO-31 renal
KM12 colon = tested on: KM12 colon
IGROV1 ovarian = tested on: IGROV1 ovarian
HOP-92 NSCLC = tested on: HOP-92 NSCLC
NCI-H322M lung = tested on: NCI-H322M lung
RXF 393 renal = tested on: RXF 393 renal
SF-539 CNS = tested on: SF-539 CNS
MCF7 breast = tested on: MCF7 breast
ACHN renal = tested on: ACHN renal
SF-268 CNS = tested on: SF-268 CNS
OVCAR-4 ovarian = tested on: OVCAR-4 ovarian
TK-10 renal = tested on: TK-10 renal
K-562 leukemia = tested on: K-562 leukemia
PC-3 prostate = tested on: PC-3 prostate
SK-OV-3 ovarian = tested on: SK-OV-3 ovarian
DU-145 prostate = tested on: DU-145 prostate
OVCAR-8 ovarian = tested on: OVCAR-8 ovarian
A549 NSCLC = tested on: A549 NSCLC
BT-549 breast = tested on: BT-549 breast
SW-620 colon = tested on: SW-620 colon
SN12C renal = tested on: SN12C renal
LOX IMVI melanoma = tested on: LOX IMVI melanoma
RPMI-8226 leukemia = tested on: RPMI-8226 leukemia
HCT-15 colon = tested on: HCT-15 colon
M14 melanoma = tested on: M14 melanoma
SK-MEL-5 melanoma = tested on: SK-MEL-5 melanoma
A498 renal = tested on: A498 renal
HCC-2998 colon = tested on: HCC-2998 colon
EKVX NSCLC = tested on: EKVX NSCLC
MDA-MB-435 melanoma = tested on: MDA-MB-435 melanoma
MDA-MB-231 breast = tested on: MDA-MB-231 breast
SK-MEL-28 melanoma = tested on: SK-MEL-28 melanoma
MOLT-4 leukemia = tested on: MOLT-4 leukemia
U251 glioblastoma = tested on: U251 glioblastoma
SR leukemia = tested on: SR leukemia
CCRF-CEM leukemia = tested on: CCRF-CEM leukemia
NCI-H23 lung = tested on: NCI-H23 lung
UACC-62 melanoma = tested on: UACC-62 melanoma
MALME-3M melanoma = tested on: MALME-3M melanoma
OVCAR-5 ovarian = tested on: OVCAR-5 ovarian
HL-60(TB) leukemia = tested on: HL-60(TB) leukemia
786-0 renal = tested on: 786-0 renal
COLO 205 colon = tested on: COLO 205 colon

CCC[C@H](N[C@H]1CCc2cc(F)cc(F)c2C1)C(=O)Nc1cn(C(C)(C)CNCC(C)(C)C)cn1
GI50 (NCI-H460 NSCLC): 15.1 µM | TGI (NCI-H460 NSCLC): 29.4 µM | GI50 (OVCAR-3 ovarian): 11.1 µM | TGI (OVCAR-3 ovarian): 23.5 µM | GI50 (SNB-19 CNS): 21.9 µM | TGI (SNB-19 CNS): 67.3 µM | GI50 (NCI/ADR-RES ovarian): 11.1 µM | TGI (NCI/ADR-RES ovarian): 27.1 µM | GI50 (HT29 colon): 9.66 µM | TGI (HT29 colon): 22.7 µM | GI50 (HOP-62 NSCLC): 17.7 µM | TGI (HOP-62 NSCLC): 51.2 µM | GI50 (CAKI-1 renal): 14.2 µM | TGI (CAKI-1 renal): 31.6 µM | GI50 (HS 578T breast): 13 µM | TGI (HS 578T breast): 31.7 µM | GI50 (NCI-H522 lung): 18.4 µM | TGI (NCI-H522 lung): 48.4 µM | GI50 (UACC-257 melanoma): 5.51 µM | TGI (UACC-257 melanoma): 21 µM | GI50 (SNB-75 CNS): 19.4 µM | TGI (SNB-75 CNS): 71 µM | GI50 (NCI-H226 lung): 15.6 µM | TGI (NCI-H226 lung): 40.4 µM | GI50 (SF-295 CNS): 14.6 µM | TGI (SF-295 CNS): 30.2 µM | GI50 (MDA-MB-468 breast): 0.603 µM | TGI (MDA-MB-468 breast): 6.55 µM | GI50 (T-47D breast): 6.21 µM | TGI (T-47D breast): 40 µM | GI50 (UO-31 renal): 14.9 µM | TGI (UO-31 renal): 32.4 µM | GI50 (KM12 colon): 16.1 µM | TGI (KM12 colon): 35.3 µM | GI50 (IGROV1 ovarian): 25.9 µM | TGI (IGROV1 ovarian): > 100 µM | GI50 (HOP-92 NSCLC): 11.5 µM | TGI (HOP-92 NSCLC): 26.2 µM | GI50 (NCI-H322M lung): 26.3 µM | TGI (NCI-H322M lung): 92.6 µM | GI50 (RXF 393 renal): 11.1 µM | TGI (RXF 393 renal): 27.1 µM | GI50 (SF-539 CNS): 18 µM | TGI (SF-539 CNS): 32.1 µM | GI50 (MCF7 breast): 6.74 µM | TGI (MCF7 breast): 23.1 µM | GI50 (ACHN renal): 19.9 µM | TGI (ACHN renal): 69.4 µM | GI50 (SF-268 CNS): 19.8 µM | TGI (SF-268 CNS): 50.8 µM | GI50 (OVCAR-4 ovarian): 13.8 µM | TGI (OVCAR-4 ovarian): 61.9 µM | GI50 (TK-10 renal): 21.4 µM | TGI (TK-10 renal): 90 µM | GI50 (K-562 leukemia): 5.58 µM | TGI (K-562 leukemia): 17 µM | GI50 (PC-3 prostate): 6.56 µM | TGI (PC-3 prostate): 21.8 µM | GI50 (SK-OV-3 ovarian): 15.8 µM | TGI (SK-OV-3 ovarian): 33.2 µM | GI50 (DU-145 prostate): 20.6 µM | TGI (DU-145 prostate): 74.6 µM | GI50 (OVCAR-8 ovarian): 22.3 µM | TGI (OVCAR-8 ovarian): > 100 µM | GI50 (A549 NSCLC): 22.2 µM | TGI (A549 NSCLC): > 100 µM | GI50 (BT-549 breast): 6.44 µM | TGI (BT-549 breast): 26.2 µM | GI50 (SW-620 colon): 21.4 µM | TGI (SW-620 colon): 42.2 µM | GI50 (SN12C renal): 33.1 µM | TGI (SN12C renal): > 100 µM | GI50 (LOX IMVI melanoma): 17.3 µM | TGI (LOX IMVI melanoma): 31.3 µM | GI50 (RPMI-8226 leukemia): 3.03 µM | TGI (RPMI-8226 leukemia): 14.1 µM | GI50 (HCT-15 colon): 12 µM | TGI (HCT-15 colon): 25.6 µM | GI50 (M14 melanoma): 14.1 µM | TGI (M14 melanoma): 27.9 µM | GI50 (SK-MEL-5 melanoma): 11.4 µM | TGI (SK-MEL-5 melanoma): 23.6 µM | GI50 (A498 renal): 11.7 µM | TGI (A498 renal): 26.6 µM | GI50 (HCC-2998 colon): 7.48 µM | TGI (HCC-2998 colon): 21.6 µM | GI50 (EKVX NSCLC): 19.2 µM | TGI (EKVX NSCLC): 71.8 µM | GI50 (MDA-MB-435 melanoma): 20.7 µM | TGI (MDA-MB-435 melanoma): 61.2 µM | GI50 (MDA-MB-231 breast): 12.2 µM | TGI (MDA-MB-231 breast): 32.1 µM | GI50 (SK-MEL-28 melanoma): 14.7 µM | TGI (SK-MEL-28 melanoma): 29.3 µM | GI50 (MOLT-4 leukemia): 3.46 µM | TGI (MOLT-4 leukemia): 15 µM | GI50 (U251 glioblastoma): 17.3 µM | TGI (U251 glioblastoma): 33.1 µM | GI50 (SR leukemia): 3.71 µM | TGI (SR leukemia): 15.4 µM | GI50 (CCRF-CEM leukemia): 6.62 µM | TGI (CCRF-CEM leukemia): 20 µM | GI50 (NCI-H23 lung): 12.1 µM | TGI (NCI-H23 lung): 29.6 µM | GI50 (UACC-62 melanoma): 14.1 µM | TGI (UACC-62 melanoma): 27.4 µM | GI50 (MALME-3M melanoma): 2.64 µM | TGI (MALME-3M melanoma): 14.4 µM | GI50 (OVCAR-5 ovarian): 21.4 µM | TGI (OVCAR-5 ovarian): 53.9 µM | GI50 (HL-60(TB) leukemia): 10.7 µM | TGI (HL-60(TB) leukemia): 22.6 µM | GI50 ([…]-0 renal): 14.5 µM | TGI (786-0 renal): 29.9 µM | GI50 (COLO 205 colon): 21.3 µM | TGI (COLO 205 colon): 97.7 µM
